The source of these data is ChEMBL document CHEMBL3822405, “Binding mode prediction of aplysiatoxin, a potent agonist of protein kinase C, through molecular simulation and structure-activity study on simplified analogs of the receptor-recognition domain” (Bioorg Med Chem, 2016).

Structures are written as SMILES.

This assay has as its target Protein kinase C delta type (Mus musculus, UniProt P28867). Nature of the assay: Inhibition of [3H]PDBu binding to PKCdelta C1B domain in CD-1 mouse brain cytosol incubated for 30 mins.

Sequence of Protein kinase C delta type (P28867 whole entry, the tested form may be a part): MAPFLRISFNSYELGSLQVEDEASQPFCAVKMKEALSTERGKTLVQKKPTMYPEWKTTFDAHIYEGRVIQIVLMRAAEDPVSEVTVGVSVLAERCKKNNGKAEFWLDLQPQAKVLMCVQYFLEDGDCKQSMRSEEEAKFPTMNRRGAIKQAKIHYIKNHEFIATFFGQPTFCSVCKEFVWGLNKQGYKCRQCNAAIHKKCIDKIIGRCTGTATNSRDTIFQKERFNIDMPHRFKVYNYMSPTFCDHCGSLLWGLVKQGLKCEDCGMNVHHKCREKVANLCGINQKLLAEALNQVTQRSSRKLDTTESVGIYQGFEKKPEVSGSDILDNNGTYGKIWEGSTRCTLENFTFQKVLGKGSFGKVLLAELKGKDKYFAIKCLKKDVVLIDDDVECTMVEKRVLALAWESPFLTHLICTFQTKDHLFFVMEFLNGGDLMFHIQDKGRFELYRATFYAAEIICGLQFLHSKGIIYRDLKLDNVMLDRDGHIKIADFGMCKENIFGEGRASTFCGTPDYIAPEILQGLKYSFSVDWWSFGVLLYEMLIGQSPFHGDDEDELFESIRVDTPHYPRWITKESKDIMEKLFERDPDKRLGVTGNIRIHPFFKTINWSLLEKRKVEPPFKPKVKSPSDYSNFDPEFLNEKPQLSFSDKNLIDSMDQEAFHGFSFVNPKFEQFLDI

Compound `CCCCCCCCOC(=O)C[C@@H](OC(=O)CCCCCCC)[C@@H](C)O` came in with a Ki of 370 nM.

Compound `CCCCCCCCC[C@@H](OC(=O)CCCCCCC)[C@@H](C)O` displayed a Ki of more than 20000 nM.

Compound `CCCCCCCCOC(=O)C[C@@H](OCCCCCCCC)[C@@H](C)O` displayed a Ki of 2900 nM. In other words, the single-digit micromolar range.

What is called Ki is the dissociation constant of the complex between target and ligand, obtained from inhibition or displacement.
